According to patent publication US11395857B2, “Radiolabeled melanocortin 1 receptor-specific alpha-melanocyte-stimulating hormone analogues for imaging or therapy” (PROVINCIAL HEALTH SERVICES AUTHORITY, priority 2018, dated 2022):

Tests used:
[1] = In vivo stability in mouse urine at 1 h p.i. (radio-HPLC); parameters: species or system C57BL/6J mice
Experimental: All animal experiments were conducted in according to the guidelines established by Canadian Council on Animal Care and approved by Animal Ethics Committee of the University of British Columbia. Mice were housed under pathogen-free conditions and kept on twelve hours light and twelve hours dark cycle in the Animal Research Centre, BC Cancer Research Centre, Vancouver, Canada. C57BL/6J mice were anesthetized by inhalation with 2% isoflurane in 2.0 L/min of oxygen, and approximately 4-6 MBq of [^68Ga]Ga-CCZ01099 or [^68Ga]Ga-CCZ01048 was injected intravenously. The mice were allowed to recover and roam freely in their cages. At 1 h post-injection (p.i.), the mice were euthanized by CO2 inhalation and their urine was collected and analyzed on HPLC for metabolite using the conditions described above. In vivo urine stability of [^68Ga]Ga-CCZ01099 and [^68Ga]Ga-CCZ01048 were 34.0±10.4% and ≥98.0% (n≥3), respectively.
The in vivo stability tests in mouse urine were performed as described in Example 1. […] With systematic reduction in the number of N-methylations for the αMSH analogues, a decrease in in vivo stability was observed.

[2] = Biodistribution of 177Lu-labeled αMSH analogues in mice bearing SK-MEL-1 human melanoma; settings: male, mouse, total radioactivity; for tissue to tissue ratio at 1 h: 1 h p.i.; for tissue to tissue ratio at 1 h / tissue to tissue ratio at 4 h / tissue to tissue ratio at 24 h / tissue to tissue ratio at 120 h: NRG mice, SK-MEL-1 melanoma; for tissue to tissue ratio at 4 h: 4 h p.i.; for tissue to tissue ratio at 24 h: 24 h p.i.; for tissue to tissue ratio at 120 h: 120 h p.i.
Experimental: The SK-MEL-1 human melanoma cell line (HTB-67) was obtained commercially from ATCC. SK-MEL-1 cells were cultured in Eagle's Minimum Essential Medium (StemCell Technologies) under the same conditions as described in Example 1. Immunodeficient NOD.Cg-Rag1tm1Mom I12rgtm1Wjl/SzJ (NRG) male mice were obtained from an in-house breeding colony at the BC Cancer Research Centre. For tumor implantation, male NRG mice were anesthetized by inhalation with 2% isoflurane, and 5 million SK-MEL-1 cells were inoculated subcutaneously on the right dorsal flank. Mice were used for imaging or biodistribution studies when the tumors reached 6-8 mm in diameter in 16-20 days.
Biodistribution studies were performed as described in Example 3.

[3] = NRG (NOD.Cg-Rag1tm1Mom I12rgtm1Wjl/SzJ), fat, iv
[4] = NRG (NOD.Cg-Rag1tm1Mom I12rgtm1Wjl/SzJ), seminal glands, iv
[5] = NRG (NOD.Cg-Rag1tm1Mom Il2rgtm1Wjl/SzJ), SK-MEL-1 tumour
[6] = NRG (NOD.Cg-Rag1tm1Mom Il2rgtm1Wjl/SzJ), adrenal glands
[7] = NRG (NOD.Cg-Rag1tm1Mom Il2rgtm1Wjl/SzJ), blood
[8] = NRG (NOD.Cg-Rag1tm1Mom Il2rgtm1Wjl/SzJ), bone
[9] = NRG (NOD.Cg-Rag1tm1Mom Il2rgtm1Wjl/SzJ), brain
[10] = NRG (NOD.Cg-Rag1tm1Mom Il2rgtm1Wjl/SzJ), heart
[11] = NRG (NOD.Cg-Rag1tm1Mom Il2rgtm1Wjl/SzJ), intestine
[12] = NRG (NOD.Cg-Rag1tm1Mom Il2rgtm1Wjl/SzJ), kidneys
[13] = NRG (NOD.Cg-Rag1tm1Mom Il2rgtm1Wjl/SzJ), liver
[14] = NRG (NOD.Cg-Rag1tm1Mom Il2rgtm1Wjl/SzJ), lungs
[15] = NRG (NOD.Cg-Rag1tm1Mom Il2rgtm1Wjl/SzJ), muscle
[16] = NRG (NOD.Cg-Rag1tm1Mom Il2rgtm1Wjl/SzJ), pancreas
[17] = NRG (NOD.Cg-Rag1tm1Mom Il2rgtm1Wjl/SzJ), spleen
[18] = NRG (NOD.Cg-Rag1tm1Mom Il2rgtm1Wjl/SzJ), stomach
[19] = NRG (NOD.Cg-Rag1tm1Mom Il2rgtm1Wjl/SzJ), testes
[20] = NRG (NOD.Cg-Rag1tm1Mom Il2rgtm1Wjl/SzJ), thyroid
[21] = NRG (NOD.Cg-Rag1tm1Mom Il2rgtm1Wjl/SzJ), tumour/blood
[22] = NRG (NOD.Cg-Rag1tm1Mom Il2rgtm1Wjl/SzJ), tumour/kidney
[23] = NRG (NOD.Cg-Rag1tm1Mom Il2rgtm1Wjl/SzJ), tumour/muscle
[24] = NRG (NOD.Cg-Rag1tm1Mom Il2rgtm1Wjl/SzJ), urine

Q: Which “In vivo urine stability, intact tracer” value [1] does the source give for CCCC[C@H](NC(=O)CN1CCC(NC(=O)CN2CCN(CC(=O)O)CCN(CC(=O)O)CCN(CC(=O)O)CC2)CC1)C(=O)N[C@H]1CC(=O)NCCCC[C@@H](C(N)=O)N(C)C(=O)[C@H](Cc2c[nH]c3ccccc23)N(C)C(=O)[C@H](CCCNC(=N)N)N(C)C(=O)[C@@H](Cc2ccccc2)NC(=O)[C@H](Cc2c[nH]cn2)N(C)C1=O [^68Ga-labeled CCZ01099, metal not drawn] here?
A: 34.0±10.4%

Q: With CCCC[C@H](NC(=O)CN1CCC(NC(=O)[C@H](CCCCNC(=O)CN2CCN(CC(=O)O)CCN(CC(=O)O)CCN(CC(=O)O)CC2)NC(=O)[C@H](CCC(=O)O)NC(=O)CCCc2ccc(I)cc2)CC1)C(=O)N[C@H]1CC(=O)NCCCC[C@@H](C(N)=O)N(C)C(=O)[C@H](Cc2c[nH]c3ccccc23)NC(=O)[C@H](CCCNC(=N)N)N(C)C(=O)[C@@H](Cc2ccccc2)NC(=O)[C@H](Cc2c[nH]cn2)NC1=O [^177Lu-labeled CCZ01118, metal not drawn] as the compound, how does the tissue uptake at 1 h [2, 3] read?
A: 1.18 ± 0.08 %ID/g

Q: What about the tissue uptake at 4 h [2, 3] of the same compound?
A: 0.45 ± 0.26 %ID/g

Q: And the tissue uptake at 24 h [2, 3]?
A: 0.1 ± 0.05 %ID/g

Q: What about the tissue uptake at 120 h [2, 3] of the same compound?
A: 0.08 ± 0.02 %ID/g

Q: What about the tissue uptake at 1 h [2, 4] of the same compound?
A: 0.59 ± 0.08 %ID/g

Q: And the tissue uptake at 4 h [2, 4]?
A: 1.53 ± 2.82 %ID/g

Q: And the tissue uptake at 24 h [2, 4]?
A: 0.06 ± 0.01 %ID/g

Q: What about the tissue uptake at 120 h [2, 4] of the same compound?
A: 0.03 ± 0.01 %ID/g

Q: What about the tissue uptake at 1 h [2, 5] of the same compound?
A: 10.5 ± 3.29 %ID/g

Q: What about the tissue uptake at 4 h [2, 5] of the same compound?
A: 14 ± 2.36 %ID/g

Q: What about the tissue uptake at 24 h [2, 5] of the same compound?
A: 10.1 ± 2.13 %ID/g

Q: And the tissue uptake at 120 h [2, 5]?
A: 4.8 ± 0.26 %ID/g

Q: What about the tissue uptake at 1 h [2, 6] of the same compound?
A: 2.99 ± 2.15 %ID/g

Q: What about the tissue uptake at 4 h [2, 6] of the same compound?
A: 1.21 ± 0.59 %ID/g

Q: And the tissue uptake at 24 h [2, 6]?
A: 0.27 ± 0.13 %ID/g

Q: What about the tissue uptake at 120 h [2, 6] of the same compound?
A: 0.3 ± 0.16 %ID/g

Q: And the tissue uptake at 1 h [2, 7]?
A: 9.63 ± 0.78 %ID/g

Q: And the tissue uptake at 4 h [2, 7]?
A: 2.46 ± 0.64 %ID/g

Q: What about the tissue uptake at 24 h [2, 7] of the same compound?
A: 0.07 ± 0.03 %ID/g

Q: And the tissue uptake at 120 h [2, 7]?
A: 0.02 %ID/g

Q: And the tissue uptake at 1 h [2, 8]?
A: 1.1 ± 0.5 %ID/g

Q: What about the tissue uptake at 4 h [2, 8] of the same compound?
A: 0.35 ± 0.08 %ID/g

Q: And the tissue uptake at 24 h [2, 8]?
A: 0.15 ± 0.02 %ID/g

Q: What about the tissue uptake at 120 h [2, 8] of the same compound?
A: 0.26 ± 0.39 %ID/g

Q: What about the tissue uptake at 1 h [2, 9] of the same compound?
A: 0.17 ± 0.02 %ID/g

Q: And the tissue uptake at 4 h [2, 9]?
A: 0.06 ± 0.01 %ID/g

Q: And the tissue uptake at 24 h [2, 9]?
A: 0.01 %ID/g

Q: And the tissue uptake at 120 h [2, 9]?
A: 0.01 %ID/g

Q: And the tissue uptake at 1 h [2, 10]?
A: 2.5 ± 0.3 %ID/g

Q: And the tissue uptake at 4 h [2, 10]?
A: 0.84 ± 0.23 %ID/g

Q: What about the tissue uptake at 24 h [2, 10] of the same compound?
A: 0.14 ± 0.04 %ID/g

Q: What about the tissue uptake at 120 h [2, 10] of the same compound?
A: 0.08 ± 0.02 %ID/g

Q: And the tissue uptake at 1 h [2, 11]?
A: 1.42 ± 0.22 %ID/g

Q: And the tissue uptake at 4 h [2, 11]?
A: 0.79 ± 0.5 %ID/g

Q: And the tissue uptake at 24 h [2, 11]?
A: 0.19 ± 0.03 %ID/g

Q: And the tissue uptake at 120 h [2, 11]?
A: 0.08 ± 0.01 %ID/g

Q: What about the tissue uptake at 1 h [2, 12] of the same compound?
A: 13.4 ± 2.53 %ID/g

Q: What about the tissue uptake at 4 h [2, 12] of the same compound?
A: 12.8 ± 2.29 %ID/g

Q: What about the tissue uptake at 24 h [2, 12] of the same compound?
A: 6.48 ± 1.25 %ID/g

Q: What about the tissue uptake at 120 h [2, 12] of the same compound?
A: 1.69 ± 0.13 %ID/g

Q: And the tissue uptake at 1 h [2, 13]?
A: 6.91 ± 1.09 %ID/g

Q: What about the tissue uptake at 4 h [2, 13] of the same compound?
A: 5.77 ± 1.62 %ID/g

Q: What about the tissue uptake at 24 h [2, 13] of the same compound?
A: 4.36 ± 1.11 %ID/g

Q: What about the tissue uptake at 120 h [2, 13] of the same compound?
A: 2.42 ± 0.33 %ID/g

Q: What about the tissue uptake at 1 h [2, 14] of the same compound?
A: 6.59 ± 1.06 %ID/g

Q: And the tissue uptake at 4 h [2, 14]?
A: 2.5 ± 0.67 %ID/g

Q: And the tissue uptake at 24 h [2, 14]?
A: 0.86 ± 0.87 %ID/g

Q: And the tissue uptake at 120 h [2, 14]?
A: 0.15 ± 0.12 %ID/g

Q: And the tissue uptake at 1 h [2, 15]?
A: 0.98 ± 0.12 %ID/g

Q: And the tissue uptake at 4 h [2, 15]?
A: 0.36 ± 0.11 %ID/g

Q: What about the tissue uptake at 24 h [2, 15] of the same compound?
A: 0.05 ± 0.01 %ID/g

Q: And the tissue uptake at 120 h [2, 15]?
A: 0.02 ± 0.01 %ID/g

Q: What about the tissue uptake at 1 h [2, 16] of the same compound?
A: 1.4 ± 0.24 %ID/g

Q: What about the tissue uptake at 4 h [2, 16] of the same compound?
A: 0.49 ± 0.08 %ID/g

Q: And the tissue uptake at 24 h [2, 16]?
A: 0.1 ± 0.02 %ID/g

Q: And the tissue uptake at 120 h [2, 16]?
A: 0.05 %ID/g

Q: What about the tissue uptake at 1 h [2, 17] of the same compound?
A: 3.06 ± 0.53 %ID/g

Q: And the tissue uptake at 4 h [2, 17]?
A: 1.45 ± 0.33 %ID/g

Q: What about the tissue uptake at 24 h [2, 17] of the same compound?
A: 1.2 ± 0.56 %ID/g

Q: And the tissue uptake at 120 h [2, 17]?
A: 0.98 ± 0.29 %ID/g

Q: And the tissue uptake at 1 h [2, 18]?
A: 0.56 ± 0.1 %ID/g

Q: And the tissue uptake at 4 h [2, 18]?
A: 0.44 ± 0.25 %ID/g

Q: What about the tissue uptake at 24 h [2, 18] of the same compound?
A: 0.36 ± 0.2 %ID/g

Q: What about the tissue uptake at 120 h [2, 18] of the same compound?
A: 0.13 ± 0.05 %ID/g

Q: What about the tissue uptake at 1 h [2, 19] of the same compound?
A: 1.58 ± 0.32 %ID/g

Q: What about the tissue uptake at 4 h [2, 19] of the same compound?
A: 0.84 ± 0.2 %ID/g

Q: What about the tissue uptake at 24 h [2, 19] of the same compound?
A: 0.22 ± 0.04 %ID/g

Q: What about the tissue uptake at 120 h [2, 19] of the same compound?
A: 0.16 ± 0.04 %ID/g

Q: And the tissue uptake at 1 h [2, 20]?
A: 4.03 ± 0.45 %ID/g

Q: And the tissue uptake at 4 h [2, 20]?
A: 3.11 ± 0.46 %ID/g

Q: And the tissue uptake at 24 h [2, 20]?
A: 2.49 ± 0.64 %ID/g

Q: What about the tissue uptake at 120 h [2, 20] of the same compound?
A: 1.83 ± 0.21 %ID/g

Q: What about the tissue to tissue ratio at 1 h [2, 21] of the same compound?
A: 1.08 ± 0.3

Q: What about the tissue to tissue ratio at 4 h [2, 21] of the same compound?
A: 5.84 ± 0.96

Q: What about the tissue to tissue ratio at 24 h [2, 21] of the same compound?
A: 165 ± 50.1

Q: And the tissue to tissue ratio at 120 h [2, 21]?
A: 246 ± 28.6

Q: And the tissue to tissue ratio at 1 h [2, 22]?
A: 0.77 ± 0.12

Q: And the tissue to tissue ratio at 4 h [2, 22]?
A: 1.1 ± 0.08

Q: What about the tissue to tissue ratio at 24 h [2, 22] of the same compound?
A: 1.55 ± 0.1

Q: What about the tissue to tissue ratio at 120 h [2, 22] of the same compound?
A: 2.85 ± 0.22

Q: What about the tissue to tissue ratio at 1 h [2, 23] of the same compound?
A: 10.6 ± 2.98

Q: What about the tissue to tissue ratio at 4 h [2, 23] of the same compound?
A: 41.5 ± 9.8

Q: And the tissue to tissue ratio at 24 h [2, 23]?
A: 201 ± 10.4

Q: What about the tissue to tissue ratio at 120 h [2, 23] of the same compound?
A: 269 ± 79.1

Q: What about the excreta dose per gram or mL at 1 h [2, 24] of the same compound?
A: 376 ± 154 %ID/g

Q: What about the excreta dose per gram or mL at 4 h [2, 24] of the same compound?
A: 154 ± 39.2 %ID/g

Q: What about the excreta dose per gram or mL at 24 h [2, 24] of the same compound?
A: 5.39 ± 1.23 %ID/g

Q: And the excreta dose per gram or mL at 120 h [2, 24]?
A: 1.12 ± 0.38 %ID/g
